Experimental data: US20230391817A1, “5ALPHA-HYDROXY-6BETA-[2-(1-H-IMIDAZOL-4-YL)-ETHYLAMINO]-CHOLESTAN-3BETA-OL ANALOGUES AND PHARMACEUTICAL COMPOSITIONS COMPRISING SAME FOR USE IN THE TREATMENT OF CANCER” (priority 2020, published 2023)
Like-named read-outs stand apart in the source and are kept apart here.

Key:
MCF-7 breast tumor cells [1] = test: Microscope observation of treated MCF-7 cells; assay type: cell-based
Protocol: (§1) A cell viability test was performed on MCF-7 (Michigan Cancer Foundation-7) breast tumor cells […] (ER(+) cells).
(§2) The MCF-7 cells are in a cell culture medium identical to that of Example 5 and are seeded in 12-well plates at 50 000 cells per well. 24 hours after seeding, the cells are treated with vehicle solvate comprising water and ethanol with a 1% o ratio of ethanol, 3β-fluoro-5α-hydroxy-6β-[2-(1H-imidazol-4-yl)ethylamino]cholestane, and 5α-hydroxy-6β-[2-(1H-imidazol-4-yl)ethylamino]cholestan-3β-ol at 1, 2.5 or 5 μM. The cells are observed under an inverted microscope and photographed via the microscope camera at 24 h and 48 h. The morphological changes in the cells at 1 μM are very small. […] The effects are more marked at 2.5 μM and 5 μM with an increase in the number of dead cells. […] After 24 h of treatment with 3β-fluoro-5α-hydroxy-6β-[2-(1H-imidazol-4-yl)ethylamino]-cholestane at 5 μM, 99% of the observed cells are supernatant, reflecting cell death, and 1% of the cells are adherent and show white vesicles. […] The cytostatic effect is illustrated by an inhibition of cell proliferation.

MCF-7 breast tumor cells [2] = test: cells; assay type: cell-based; conditions: for cell viability in MTT compared with the control: 1, 2.5 or 5 μM, 48 h; for viability at 5 µM: Homo sapiens, MCF7, 48 h, read-out: percentage of cell viability relative to the control group
Protocol: as §1, §2
The cell viability is measured by labeling with MTT at 48 hours. This test is based on the use of the tetrazolium salt MTT (3-(4,5-dimethylthiazol-2-yl)-2,5-diphenyltetrazolium bromide). Tetrazolium is reduced by mitochondrial succinate dehydrogenase in active living cells to formazan, a purple colored precipitate. The amount of precipitate formed is proportional to the amount of living cells but also to the metabolic activity of each cell. Thus, a simple determination of the optical density at 540 nm by spectroscopy makes it possible to determine the relative amount of living and metabolically active cells. After 48 hours, the medium is aspirated, and the cells are washed with phosphate-buffered saline (PBS) and then incubated with MTT (0.5 mg/ml in PBS) for about 2 hours. The MTT solution is aspirated and the purple crystals are dissolved in dimethyl sulfoxide (DMSO). The OD (optical density) is measured at 540 nm.
The control group is prepared in a similar manner to the groups studied without the addition of the molecules studied in the present text. […] For a concentration of 5 μM, the viability is close to 0%. This reflects the ability of the compound of formula (I) to kill mammary tumor cells.

[3] = tested on: murine 4T1 mammary tumor cells; test: Cell viability of 4T1 cells, MTT; assay type: cell-based; conditions: for IC50: Mus musculus, 4T1, MTT, 48 h
Protocol: Cell viability tests were performed on murine 4T1 mammary tumor cells characterized as triple negative (HER2-, ER-, PR-).
For this experiment, a cell culture medium was prepared. The culture medium consisted of Dulbecco's Modified Eagle Medium (DMEM, sold by Westburg as LO BE12-604F), comprising 4.5 g/L glucose with L-glutamine, to which 10% fetal calf serum (FCS) and 50 U/ml penicillin/streptomycin are added. The 4T1 cells were introduced into this culture medium.
96-well plates were seeded with 2000 4T1 cells per well. After 72 hours (h) of culture under normal condition, i.e. in an incubator at 37° C. at […], the 4T1 cells were treated for 48 h with DX101, DX103, DX111, DX123, DX125, DX127 and DX129 at 100 nM, 1 μM, 2.5 μM and 10 μM. A control condition (CTL) is also performed in parallel using the previously described protocol without treatment with the molecules DX101, DX103, DX111, DX123, DX125, DX127 or DX129.
The cell viability is measured by three different methods. For the first method, MTT labeling is performed at 48 hours. This test is based on the use of the tetrazolium salt MTT (3-(4,5-dimethylthiazol-2-yl)-2,5-diphenyltetrazolium bromide). Tetrazolium is reduced by mitochondrial succinate dehydrogenase in active live cells to formazan, a purple colored precipitate. The amount of precipitate formed is proportional to the amount of live cells but also to the metabolic activity of each cell. Thus, a simple determination of the optical density at 550 nm by spectroscopy makes it possible to determine the relative amount of live and metabolically active cells. After 48 hours, the medium is aspirated, and the cells are incubated with MTT (0.5 mg/ml in culture medium) for about 3 hours. The MTT solution is aspirated and the purple crystals are dissolved in dimethyl sulfoxide (DMSO). The OD (optical density) is measured at 550 nm. The percentage of viability is then determined in each well against the CTL and the IC50 (concentration at which 50% of cells remain alive) is determined for each molecule with the Prism software using a nonlinear regression curve (log(inhibitor) vs. Response).

[4] = Pharmacokinetics and bioavailability, oral and I.V., in rats (Example 28); assay type: in vivo; conditions: rat
Protocol: Plasma sampling at 0 (without injection), 15, 30 min, 1 h, 4 h, 8 h, 24 h, 48 h, 72 h

[5] = log of IC50 in μM, read-out: Mean LogIC50 (±SEM) (converted)

SMILES: CC(C)CCC[C@@H](C)[C@H]1CC[C@H]2[C@@H]3C[C@@H](NCCc4c[nH]cn4)[C@@]4(O)C[C@@H](O)CC[C@]4(C)[C@H]3CC[C@]12C [DX101, 5α-hydroxy-6β-[2-(1H-imidazol-4-yl)ethylamino]cholestan-3β-ol, reference compound]
- morphological changes in the cells (MCF-7 breast tumor cells [1]; 1 μM, 24 h): Only a few white vesicles
- cell viability in MTT compared with the control (MCF-7 breast tumor cells [2]): dose-dependent decrease
- viability at 5 µM (MCF-7 breast tumor cells [2]): ~0%
- IC50 [3, 5]: 4.37 µM
- IC50 ([3]; read-out: IC50): 4.4 µM
- clearance ([4]; plasma, iv, 5 mg/kg, read-out: Clearance): 11 mL/min/kg
- half-life ([4]; plasma, iv, 5 mg/kg, read-out: T½ 2nd phase (converted)): 1680 min
- bioavailability ([4]; plasma, po 50 mg/kg versus iv 5 mg/kg, read-out: F %): 3%
- half-life ([4]; plasma, po, 50 mg/kg, read-out: T½ 2nd phase (converted)): 2340 min
- ASC(t0-tlast) ([4]; iv, 5 mg/kg, plasma): 6205
- Cmax ([4]; iv, 5 mg/kg, plasma, read-out: Cmax): 3310 ng/mL
- Vd ([4]; plasma, iv, 5 mg/kg, iv, 5 mg/kg, read-out: Vd): 29 L/kg
- Vd ([4]; plasma, iv, 5 mg/kg, iv, 5 mg/kg, read-out: Vss): 19 L/kg
- clearance ([4]; po, 50 mg/kg): 412 mL/min/kg
- ASC(t0-tlast) ([4]; po, 50 mg/kg, plasma): 1546
- Cmax ([4]; po, 50 mg/kg, plasma, read-out: Cmax): 77 ng/mL
- Tmax ([4]; po, 50 mg/kg, plasma, read-out: Tmax): 4 h

SMILES: CC(C)CCC[C@@H](C)[C@H]1CC[C@H]2[C@@H]3C[C@@H](NCCc4c[nH]cn4)[C@@]4(O)C[C@@H](F)CC[C@]4(C)[C@H]3CC[C@]12C [DX111, 3β-fluoro-5α-hydroxy-6β-[2-(1H-imidazol-4-yl)ethylamino]cholestane]
- morphological changes in the cells (MCF-7 breast tumor cells [1]; 1 μM, 24 h): Only a few white vesicles
- morphological changes in the cells (MCF-7 breast tumor cells [1]; 2.5 μM, 24 h): numerous white vesicles and detached cells
- cytostatic effect compared with 24 h (MCF-7 breast tumor cells [1]; 2.5 μM, 48 h): stronger cytostatic effect
- cells that are adherent and show white vesicles (MCF-7 breast tumor cells [1]; 5 μM, 24 h): 1%
- observed cells that are supernatant (cell death) (MCF-7 breast tumor cells [1]; 5 μM, 24 h): 99%
- morphological changes in the cells (MCF-7 breast tumor cells [1]; 5 μM, 48 h): all the cells are supernatant
- effect compared with 5α-hydroxy-6β-[2-(1H-imidazol-4-yl)ethylamino]cholestan-3β-ol (MCF-7 breast tumor cells [1]; 24 h of observation): greater or equal effect
- effect compared with 5α-hydroxy-6β-[2-(1H-imidazol-4-yl)ethylamino]cholestan-3β-ol (MCF-7 breast tumor cells [1]; 48 h of observation): similar
- cell viability in MTT compared with the control (MCF-7 breast tumor cells [2]): dose-dependent decrease
- viability at 5 µM (MCF-7 breast tumor cells [2]): ~0%
- cytotoxic activity compared with DX101 ([3]; 4T1, Tables 1a, 1b and 1c (MTT, LDH, Green Cytotoxicity Assay)): higher
- IC50 [3, 5]: 1.7 µM
- IC50 ([3]; read-out: IC50): 1.69 µM
- bioavailability ([4]; in vivo): 10%
- ASC(t0-tlast) ([4]; in vivo, iv, 5 mg/kg): 3516
- Cmax ([4]; in vivo, iv, 5 mg/kg): 2970 ng/mL
- clearance ([4]; in vivo, iv, 5 mg/kg): 25 mL/min/kg
- half-life ([4]; in vivo, iv, 5 mg/kg): 1260 min
- Vd ([4]; in vivo, iv, 5 mg/kg, Vd): 43 L/kg
- Vd ([4]; in vivo, iv, 5 mg/kg, Vss): 12 L/kg
- bioavailability compared with DX101 ([4]; in vivo, po): three-fold higher bioavailability
- clearance compared with DX101 ([4]; in vivo, po): halved
- maximum plasma concentration compared with DX101 ([4]; in vivo, po): four times higher
- ASC(t0-tlast) ([4]; in vivo, po, 50 mg/kg): 3228
- Cmax ([4]; in vivo, po, 50 mg/kg): 309 ng/mL
- Tmax ([4]; in vivo, po, 50 mg/kg): 4 h
- clearance ([4]; in vivo, po, 50 mg/kg): 240 mL/min/kg
- half-life ([4]; in vivo, po, 50 mg/kg): 1440 min
